According to paper PMC10444810, “Induction of open-form bile canaliculus formation by hepatocytes for evaluation of biliary drug excretion” (Communications Biology, 2023):
Like-named read-outs stand apart in the source and are kept apart here.

Key:
[1] = Reported human in vivo biliary excretion clearance and intrinsic clearance estimated from it (Eq. 4)
[2] = tested on: sandwich-cultured PXB-cells; conditions: human, 1 μM
P-gp = P-gp (Homo sapiens, UniProt P08183); conditions: two donors (HUM181001B), 1 μCi/ml, 120 min
Chain of P-gp (P08183 whole entry): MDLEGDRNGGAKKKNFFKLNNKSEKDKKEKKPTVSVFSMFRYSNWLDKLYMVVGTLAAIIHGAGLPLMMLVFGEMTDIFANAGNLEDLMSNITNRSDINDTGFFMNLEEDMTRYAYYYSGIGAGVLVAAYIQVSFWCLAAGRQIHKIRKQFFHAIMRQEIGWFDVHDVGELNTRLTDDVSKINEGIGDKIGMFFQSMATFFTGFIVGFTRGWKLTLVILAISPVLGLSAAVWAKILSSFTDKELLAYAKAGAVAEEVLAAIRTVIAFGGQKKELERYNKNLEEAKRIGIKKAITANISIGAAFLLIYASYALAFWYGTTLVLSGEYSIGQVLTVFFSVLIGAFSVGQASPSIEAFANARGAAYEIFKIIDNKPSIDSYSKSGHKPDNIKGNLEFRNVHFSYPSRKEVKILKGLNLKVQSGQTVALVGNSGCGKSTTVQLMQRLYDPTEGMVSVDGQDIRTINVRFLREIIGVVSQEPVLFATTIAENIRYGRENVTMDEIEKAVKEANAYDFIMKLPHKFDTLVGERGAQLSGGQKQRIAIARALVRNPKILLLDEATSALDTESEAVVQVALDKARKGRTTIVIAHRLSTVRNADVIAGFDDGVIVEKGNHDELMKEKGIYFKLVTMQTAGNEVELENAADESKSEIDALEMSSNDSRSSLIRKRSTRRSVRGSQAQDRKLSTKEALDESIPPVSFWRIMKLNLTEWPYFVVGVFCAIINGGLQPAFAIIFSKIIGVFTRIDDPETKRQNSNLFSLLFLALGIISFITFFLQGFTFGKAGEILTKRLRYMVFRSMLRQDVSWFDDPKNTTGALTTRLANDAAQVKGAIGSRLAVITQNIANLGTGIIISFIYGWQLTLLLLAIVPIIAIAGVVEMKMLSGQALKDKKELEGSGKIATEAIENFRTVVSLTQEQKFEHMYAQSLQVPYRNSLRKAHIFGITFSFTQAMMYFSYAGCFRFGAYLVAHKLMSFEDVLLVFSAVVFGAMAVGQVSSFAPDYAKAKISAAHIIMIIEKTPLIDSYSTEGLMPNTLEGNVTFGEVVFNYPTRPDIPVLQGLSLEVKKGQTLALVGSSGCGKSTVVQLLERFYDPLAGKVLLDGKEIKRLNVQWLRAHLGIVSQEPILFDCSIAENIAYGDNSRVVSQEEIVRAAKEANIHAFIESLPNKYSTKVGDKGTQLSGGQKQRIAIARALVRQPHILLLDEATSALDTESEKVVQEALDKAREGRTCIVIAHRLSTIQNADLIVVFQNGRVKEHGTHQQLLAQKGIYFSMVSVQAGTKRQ
Description: The cells were incubated in a 37°C water bath, and 200 μl of TB was collected from the lower chamber (bile side) at 30, 60, 90, and 120 min. An equal amount of TB was immediately added after every sampling point. […] The apparent permeability coefficient Papp (cm/s) was estimated using Eq. (2). Here, Q, A, and C0 indicate the recovered amount of the compound on the bile side, the surface area of the insert membrane (0.3 cm^2), and the initial concentration of the substrate, respectively.2 Papp=dQ/dt/(A×C0)

in vitro = conditions: human, Biliary excretion clearance, observed, CLbile, int
[3] = human, cited from earlier work
[4] = cited from earlier work
[5] = cited from earlier work; for Rb: blood/plasma concentration ratio
[6] = icHep permeation assay (sinusoidal to bile side) to estimate drug biliary excretion clearance; conditions: human, Biliary excretion clearance, in vitro, observed, CLbile, int, icHep (HUM181001B); CLbile,app of icHep minus control cells
CYP1A2 = CYP1A2 (Homo sapiens, UniProt P05177)
Chain of CYP1A2 (P05177 whole entry): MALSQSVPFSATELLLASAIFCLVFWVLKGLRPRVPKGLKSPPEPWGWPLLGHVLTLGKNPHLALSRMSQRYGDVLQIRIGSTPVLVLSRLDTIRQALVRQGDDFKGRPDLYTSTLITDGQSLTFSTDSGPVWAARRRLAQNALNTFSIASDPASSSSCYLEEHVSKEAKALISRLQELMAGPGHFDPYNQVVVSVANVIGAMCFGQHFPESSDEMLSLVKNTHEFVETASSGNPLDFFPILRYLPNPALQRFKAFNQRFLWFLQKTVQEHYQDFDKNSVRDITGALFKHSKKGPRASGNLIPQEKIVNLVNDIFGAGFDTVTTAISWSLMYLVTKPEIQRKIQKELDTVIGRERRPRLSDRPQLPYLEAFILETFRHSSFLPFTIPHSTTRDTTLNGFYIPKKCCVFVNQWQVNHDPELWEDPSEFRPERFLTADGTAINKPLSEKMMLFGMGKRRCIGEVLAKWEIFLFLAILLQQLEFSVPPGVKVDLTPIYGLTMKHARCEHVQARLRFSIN

[7] = estimated from observed CLbile with fp, Rb, Qh 1400 ml/min
[8] = estimated from observed in vivo CLbile with fp, Rb and Qh 1400 ml/min

| Structure (SMILES) | Observed in vivo CLbile, int [1, 7] [mL/min] | Observed in vivo CLbile, int [1, 8] [mL/min] | BEI (%) Mean ([2]; 2 min) [%] | Predicted in vivo CLbile, int, Mean ([2]; 2 min) [mL/min] | BEI (%) Mean ([2]; 5 min) [%] | Predicted in vivo CLbile, int, Mean ([2]; 5 min) [mL/min] | BEI (%) Mean ([2]; 10 min) [%] | Predicted in vivo CLbile, int, Mean ([2]; 10 min) [mL/min] | BEI (%) Mean ([2]; 20 min) [%] | Predicted in vivo CLbile, int, Mean ([2]; 20 min) [mL/min] | other results |
| --- | --- | --- | --- | --- | --- | --- | --- | --- | --- | --- | --- |
| C[C@H]1O[C@@H](O[C@H]2[C@@H](O)C[C@H](O[C@H]3[C@@H](O)C[C@H](O[C@H]4CC[C@@]5(C)[C@H](CC[C@@H]6[C@@H]5C[C@@H](O)[C@]5(C)[C@@H](C7=CC(=O)OC7)CC[C@]65O)C4)O[C@@H]3C)O[C@@H]2C)C[C@H](O)[C@@H]1O [Digoxin, digoxin] | 154 | 154 | 21.9 | 703 | 28.3 | 410 | 44.9 | 439 | 37.1 | 152 | permeability to the bile side in icHep compared to the control (P-gp): significantly increased |
| CCOc1ccc2ccccc2c1C(=O)N[C@@H]1C(=O)N2[C@@H]1SC(C)(C)[C@@H]2C(=O)O [Nafcillin, nafcillin] | 1213 | 1213 | 57.4 | 3401 | 42.7 | 1026 | 40.6 | 340 | 70.9 | 608 | hepatocyte CLint at 1 μM (in vitro): 2.22 ± 1.01 µL/min/1e6 cells; Observed in vivo CLbile ([3]; reported in vivo biliary excretion clearance): 125 mL/min; Observed in vivo CLbile ([3]; reported value): 125 mL/min; fp, unbound fraction of the plasma protein ([4]; reported value): 0.123[43]; fp ([4]; unbound fraction of the plasma protein): 0.123; fp ([4]; unbound fraction, reported value): 0.123; Rb ([5]; reported value): 0.55; Rb [5]: 0.55; Rb, blood/plasma concentration ratio ([5]; reported value): 0.55[43]; hepatocyte CLint at 1 μM [6]: 1.07 ± 0.14 µL/min/1e6 cells |
| CC(=O)Nc1ccc(O)cc1 [Acetaminophen] |  |  |  |  |  |  |  |  |  |  | Enzyme activity, Mean (CYP1A2): 0.950 pmol/min/106 cells |
